Assay [1] is described as follows: viability of uninfected HEp-2 cells – cell-based, HTS, cytotoxicity control for RSV inhibitor project, dose response (AID 2410). It counts as functional. Particulars: human respiratory syncytial virus.
For assay [2], the target named is T1, Replicative DNA helicase DnaB (Mycobacterium tuberculosis, UniProt P9WMR3).
T1 sequence (P9WMR3 whole entry): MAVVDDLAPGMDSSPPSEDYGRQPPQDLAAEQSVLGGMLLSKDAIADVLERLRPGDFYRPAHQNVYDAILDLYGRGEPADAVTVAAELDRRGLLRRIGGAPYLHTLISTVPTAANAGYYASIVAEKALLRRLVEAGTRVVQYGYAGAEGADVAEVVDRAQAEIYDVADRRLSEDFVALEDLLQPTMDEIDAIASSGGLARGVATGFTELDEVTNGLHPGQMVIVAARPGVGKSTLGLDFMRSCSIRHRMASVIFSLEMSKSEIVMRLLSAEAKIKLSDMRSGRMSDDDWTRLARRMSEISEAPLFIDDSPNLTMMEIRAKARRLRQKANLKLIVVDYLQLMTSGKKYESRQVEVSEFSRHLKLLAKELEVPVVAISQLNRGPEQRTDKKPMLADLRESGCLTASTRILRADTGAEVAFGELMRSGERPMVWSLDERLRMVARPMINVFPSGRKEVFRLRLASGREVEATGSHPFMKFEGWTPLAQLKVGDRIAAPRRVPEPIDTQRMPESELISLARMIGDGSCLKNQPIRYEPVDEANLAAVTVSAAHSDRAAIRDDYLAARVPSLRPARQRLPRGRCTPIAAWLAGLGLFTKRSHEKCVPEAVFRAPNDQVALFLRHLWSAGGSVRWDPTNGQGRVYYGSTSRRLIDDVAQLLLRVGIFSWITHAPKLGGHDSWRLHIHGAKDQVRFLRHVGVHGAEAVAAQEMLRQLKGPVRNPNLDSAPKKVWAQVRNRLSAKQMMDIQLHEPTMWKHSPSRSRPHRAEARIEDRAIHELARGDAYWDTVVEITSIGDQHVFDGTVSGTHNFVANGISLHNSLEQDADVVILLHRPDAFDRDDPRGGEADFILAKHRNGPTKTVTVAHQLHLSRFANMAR
The assay is described as follows: DnaB intein splicing inhibitors, dose response, biochemical, cell-free fluorescence (AID 449749). It counts as functional.

The next assay has as its target T2, Protein RecA (Mycobacterium tuberculosis, UniProt P9WHJ3).
T2 sequence (P9WHJ3 whole entry): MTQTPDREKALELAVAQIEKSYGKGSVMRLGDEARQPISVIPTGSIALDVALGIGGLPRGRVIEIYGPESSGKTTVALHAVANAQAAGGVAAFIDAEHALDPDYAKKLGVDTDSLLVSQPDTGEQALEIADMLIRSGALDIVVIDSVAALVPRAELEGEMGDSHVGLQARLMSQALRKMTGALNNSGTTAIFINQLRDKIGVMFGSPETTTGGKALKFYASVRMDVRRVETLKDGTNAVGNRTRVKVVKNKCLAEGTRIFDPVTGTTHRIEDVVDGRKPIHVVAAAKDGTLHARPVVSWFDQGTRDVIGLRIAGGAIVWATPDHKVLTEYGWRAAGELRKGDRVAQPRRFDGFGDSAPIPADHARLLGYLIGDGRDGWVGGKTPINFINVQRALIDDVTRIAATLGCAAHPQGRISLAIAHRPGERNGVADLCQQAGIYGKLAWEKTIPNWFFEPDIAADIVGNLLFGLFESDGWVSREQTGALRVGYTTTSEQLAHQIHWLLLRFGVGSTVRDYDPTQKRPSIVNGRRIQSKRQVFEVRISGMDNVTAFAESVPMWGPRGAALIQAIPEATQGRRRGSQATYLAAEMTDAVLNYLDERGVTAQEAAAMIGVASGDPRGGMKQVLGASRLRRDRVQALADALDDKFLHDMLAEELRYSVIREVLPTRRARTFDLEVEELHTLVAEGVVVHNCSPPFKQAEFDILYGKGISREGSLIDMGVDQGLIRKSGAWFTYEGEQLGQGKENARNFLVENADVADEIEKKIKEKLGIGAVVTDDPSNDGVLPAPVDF
The experiment in a line: Fluorescence Cell-Free Homogeneous Dose Retest to Identify Inhibitors of RecA-Intein Splicing Activity. [Related pubchem assays (depositor defined):AID2097, AID2223, AID489010, AID492950]. The class given is functional.

Assay [3] can be described thus: blockers of HIV-1 envelope-mediated cell-cell fusion – cherry-pick, dose response (AID 652057). The class given is functional, cell-based.
A short description of assay [4]: viability loss in CEM21 cells – cell-based, CellTiter-Glo luminescence, cherry-picked, cytotoxicity control for viral fusion inhibitor project, dose response (AID 652042).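 Note: potency for signal decrease meaning cytotoxicity.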 It counts as functional. (In general: ATP-based viability assays read luminescence as a measure of living cells.)
Assay [5] is described as follows: blockers of HIV-1 ZM109 envelope-driven cell-cell fusion – HeLa effector, CEM target cells, luciferase, cherry-pick, dose response (AID 652058).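 Note: luciferase signal from HIV-1 Env mediated cell-cell fusion of effector and target cells.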 It counts as functional, cell-based.
Assay [6] is described as follows: off-target signal loss in HeLa-CEM21 co-culture – HeLa F-luc CTL cells, cherry-picked, counter-screen for HIV-1 Env fusion inhibitor project, dose response (AID 652040).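 Note: potency for signal decrease marking cytotoxic or nonspecific inhibition.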 The class given is functional, cell-based. For orientation: The purpose of a counterscreen is to sort out artefacts and off-target activity.
Assay [7] in a line: HIV-1 AD8 envelope cell-cell fusion blockers – cherry-pick, dose response (AID 652062).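 Note: luciferase signal from cell-cell fusion driven by HIV-1 clade B AD8 Env; potency is for inhibitors of fusion seen as a drop in luminescence.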 The class given is functional, cell-based.
Assay [8] deals with T3, Oxysterols receptor LXR-beta (Homo sapiens, UniProt P55055).
T3 sequence (P55055 whole entry): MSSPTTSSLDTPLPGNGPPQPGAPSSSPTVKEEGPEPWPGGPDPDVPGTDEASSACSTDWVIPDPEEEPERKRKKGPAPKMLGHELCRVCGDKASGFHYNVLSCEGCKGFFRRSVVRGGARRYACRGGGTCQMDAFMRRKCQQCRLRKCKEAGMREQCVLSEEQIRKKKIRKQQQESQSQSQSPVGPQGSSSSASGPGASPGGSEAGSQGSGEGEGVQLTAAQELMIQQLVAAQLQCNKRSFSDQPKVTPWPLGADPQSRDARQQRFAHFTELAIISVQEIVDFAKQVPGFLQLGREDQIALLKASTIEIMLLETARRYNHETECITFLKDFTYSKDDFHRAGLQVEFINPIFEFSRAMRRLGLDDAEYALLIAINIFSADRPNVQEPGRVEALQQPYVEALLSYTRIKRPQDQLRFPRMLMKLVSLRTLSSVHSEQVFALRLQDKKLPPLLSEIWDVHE
The class given is functional, cell-based.

In assay [9] the target is T4, Polyadenylate-binding protein 1 (Homo sapiens, UniProt P11940). The experiment in a line: MLLE binding blockers, Cy5 peptide tracer – biochemical, fluorescence polarization, Cy5-PAM2 peptide, secondary, miRNA deadenylation inhibitor project, dose response (AID 602260). It counts as functional. Particulars: read-out: IC50_Mean. In general terms: Polarisation of emitted light reports the rotation of a fluorescent probe.
T4 sequence (P11940 whole entry): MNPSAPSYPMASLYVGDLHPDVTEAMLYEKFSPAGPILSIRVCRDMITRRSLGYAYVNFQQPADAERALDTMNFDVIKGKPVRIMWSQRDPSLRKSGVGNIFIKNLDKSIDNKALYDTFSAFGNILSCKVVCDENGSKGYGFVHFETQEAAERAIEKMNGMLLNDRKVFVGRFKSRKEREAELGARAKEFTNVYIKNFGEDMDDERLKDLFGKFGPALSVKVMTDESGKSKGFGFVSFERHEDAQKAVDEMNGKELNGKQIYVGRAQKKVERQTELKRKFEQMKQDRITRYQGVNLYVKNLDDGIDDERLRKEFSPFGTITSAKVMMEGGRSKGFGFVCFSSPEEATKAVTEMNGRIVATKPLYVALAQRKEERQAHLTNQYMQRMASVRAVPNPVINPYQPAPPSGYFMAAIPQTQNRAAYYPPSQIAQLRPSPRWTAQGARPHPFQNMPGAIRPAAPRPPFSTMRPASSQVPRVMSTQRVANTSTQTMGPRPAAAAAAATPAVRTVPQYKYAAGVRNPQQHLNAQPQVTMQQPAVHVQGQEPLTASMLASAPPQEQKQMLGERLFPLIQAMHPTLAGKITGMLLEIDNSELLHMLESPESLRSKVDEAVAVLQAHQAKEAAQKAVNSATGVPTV

The next assay concerns P388/ADR. The assay is described as follows: cells. The class given is functional. Particulars: Mus musculus.
The target in assay [10] is T4, Polyadenylate-binding protein 1. The experiment in a line: MLLE domain peptide-binding blockers, IC50 – biochemical, fluorescence polarization, FITC-PAM2 peptide, dose response (AID 602259). The class given is functional. Particulars: read-out: IC50_Mean.
Another assay has as its system SN12K1. The assay is described as follows: cells. To be noted: Homo sapiens. The class given is functional.
For the next assay, the system named is P388. The assay is described as follows: cells. It counts as functional. To be noted: Mus musculus.
In a further assay the target is T5, Caspase-6 (Homo sapiens, UniProt P55212).
T5 sequence (P55212 whole entry): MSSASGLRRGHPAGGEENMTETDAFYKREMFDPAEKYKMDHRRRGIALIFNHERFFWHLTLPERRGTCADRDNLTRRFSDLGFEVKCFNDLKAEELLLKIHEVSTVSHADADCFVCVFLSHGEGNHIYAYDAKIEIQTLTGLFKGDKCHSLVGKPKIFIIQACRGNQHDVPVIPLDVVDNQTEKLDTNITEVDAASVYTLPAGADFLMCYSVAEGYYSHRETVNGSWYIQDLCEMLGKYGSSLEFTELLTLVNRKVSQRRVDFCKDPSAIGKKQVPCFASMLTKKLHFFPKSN
The experiment in a line: inhibition of CASP6 peptide cleavage – biochemical, VEID-R110 fluorescence, cherry-pick, dose response (AID 720632).

For assay [11], the target named is T6, Luciferin 4-monooxygenase (Photinus pyralis, UniProt P08659). The assay is described as follows: Counter Screen for Luciferase-based Assay Positives. [Related pubchem assays: 620, 618, 411 ].
T6 sequence (P08659 whole entry): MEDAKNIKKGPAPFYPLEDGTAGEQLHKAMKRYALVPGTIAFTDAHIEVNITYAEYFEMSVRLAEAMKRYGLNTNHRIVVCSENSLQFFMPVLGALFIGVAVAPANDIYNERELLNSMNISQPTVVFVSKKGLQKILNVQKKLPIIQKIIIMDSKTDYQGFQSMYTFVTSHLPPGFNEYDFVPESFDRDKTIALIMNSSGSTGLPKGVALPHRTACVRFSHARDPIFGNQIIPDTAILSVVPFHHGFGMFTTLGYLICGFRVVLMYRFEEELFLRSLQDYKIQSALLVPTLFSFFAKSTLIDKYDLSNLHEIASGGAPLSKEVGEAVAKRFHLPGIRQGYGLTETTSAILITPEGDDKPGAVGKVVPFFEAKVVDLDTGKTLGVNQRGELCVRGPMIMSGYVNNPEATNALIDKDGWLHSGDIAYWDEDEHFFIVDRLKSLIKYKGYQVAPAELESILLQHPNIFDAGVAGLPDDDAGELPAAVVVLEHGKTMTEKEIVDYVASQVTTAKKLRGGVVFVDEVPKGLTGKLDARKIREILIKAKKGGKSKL
Assay [12] in a line: Luminescence Cell-Based Dose Response HTS to Identify Inhibitors of 5'UTR Stem-Loop Driven Prion Protein mRNA Translation in H4 Neuroglioblastoma Cells. [Related pubchem assays: 1827 (Project Summary), 1813 (Primary HTS)]. The class given is functional.
The target in assay [13] is T6, Luciferin 4-monooxygenase. The assay is described as follows: inhibition of purified Photinus pyralis luciferase – biochemical, luminescence, dose response (AID 1891).
Assay [14] can be described thus: Luminescence Cell-Based Dose Confirmation HTS to Identify Inhibitors of Platelet Dense Granule Release. [Related pubchem assays: 1663 (Primary HTS), 1678 (Summary of Project)]. It counts as functional.
The nature of assay [15]: microbe, parasite or virus in culture. It counts as functional. To be noted: Mycobacterium tuberculosis.
For another assay, the system named is HT-1080. The experiment in a line: HT1080 cell viability loss – fluorescence readout (AID 620). It counts as functional, cell-based. Particulars: Homo sapiens.
Assay [16] addresses T7, Mannose-6-phosphate isomerase (Homo sapiens, UniProt P34949).
T7 sequence (P34949 whole entry): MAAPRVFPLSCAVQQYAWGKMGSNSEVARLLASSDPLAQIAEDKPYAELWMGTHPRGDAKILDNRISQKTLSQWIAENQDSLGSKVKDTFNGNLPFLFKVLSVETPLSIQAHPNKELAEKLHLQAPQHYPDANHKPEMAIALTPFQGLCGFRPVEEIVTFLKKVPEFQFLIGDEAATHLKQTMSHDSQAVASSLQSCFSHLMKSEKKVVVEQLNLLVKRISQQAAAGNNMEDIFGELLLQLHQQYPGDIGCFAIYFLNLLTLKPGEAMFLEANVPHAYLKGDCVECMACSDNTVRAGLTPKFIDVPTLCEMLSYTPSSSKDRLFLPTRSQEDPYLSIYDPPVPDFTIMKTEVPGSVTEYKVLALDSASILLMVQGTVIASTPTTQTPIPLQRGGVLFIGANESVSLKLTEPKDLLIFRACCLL
The assay is described as follows: MPI inhibition at elevated mannose 6-phosphate – biochemical, fluorescence intensity, high mannose 6-phosphate, primary screen (AID 1220).

Assay [17] is described as follows: Luminescence-based cell-based high throughput dose response assay to identify activators of the DAF-12 from the parasite S. stercoralis (ssDAF-12). It counts as functional.
The target of assay [18] is T3, Oxysterols receptor LXR-beta. The assay is described as follows: LXR agonists, Gal4 luciferase reporter, dose response, counter-screen for ssDAF-12 agonist project, cell-based, luminescence, HEK293, S. stercoralis campaign (AID 720737). It counts as functional. To be noted: read-out: IC50 (the source's name).
Assay [19] in a line: Trypanosoma cruzi growth suppression in host cells – NIH3T3 host cells, beta-gal luminescence, confirmation (AID 2044).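 Note: intracellular parasites grown in NIH/3T3 mouse fibroblasts as host cells; luminescent beta-galactosidase reporter signal from transgenic T. cruzi replicating inside host cells; inhibitors lower the luminescence signal.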 The class given is functional, cell-based.
Assay [20] can be described thus: NIH3T3 cell viability loss – ATP luminescence, mouse fibroblasts, counter-screen, dose response (AID 2010).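 Note: cells exposed to compound for about 90 hours before reading.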 It counts as functional, cell-based.
Assay [21] addresses T3, Oxysterols receptor LXR-beta. It counts as functional, cell-based. This is another data set of the same source.

Activity calls are given as the source filed them.

By AC50 is commonly meant the concentration at which the activity in the assay is half-maximal. `Oc1nnc(Sc2ncnc3sccc23)n1CCc1ccccc1`: in assay [1], the CC50 is 14.9 µM (active). Moreover, the AC50 in assay [2] was > 380 µM (inactive); in [3], 7.58 µM (active); in [4], 27 µM (active); in assay [5], 16.6 µM (active); in assay [6] it was 17.3 µM (active); in assay [7], 18.1 µM (active). The EC50 on Protein RecA was 18 µM (active).
For the molecule `Fc1ccccc1-c1nc(-c2ccccc2)no1`, the EC50 (in assay [8]; in the assay “cells”) was > 67.5 µM (inactive) in each case.
As usually defined, the GI50 is the concentration that inhibits growth by half. Turning to `CN1N=C(N)c2cn(C3OC(COP(=O)(O)O)C(O)C3O)c3ncnc1c23` (stereo not drawn), the IC50 in assay [9] and in assay [10] was > 66 µM (inactive) in each case. Also, the results for the GI50 with P388/ADR, in the assay with SN12K1 and with P388 were 500 nM (active), 32.8 µM (inactive) and 500 nM (active), respectively. Further, the AC50 on Caspase-6 was 29.6 µM (active).
As for `OC1=C(/C=N/c2ccc3c(c2)OCO3)CCc2ccccc21`, the EC50 in [11] was 2.31 µM (active); in assay [12], 7.7 µM (active); in assay [13], 0.871 µM (active); in assay [14], 7.07 µM (active); with HT-1080 it was > 50 µM (not active); on Protein RecA, 0.43 µM (active). In assay [15], the CC50 is > 40 µM (active). Besides, the IC50 in [16] was 0.829 µM (active). For the same molecule, the AC50 in assay [2] was > 380 µM (inactive).
Turning to `Cc1cccc2c(N=Nc3ccccc3)c(O)[nH]c12`, in assay [17], the IC50 is > 67.5 µM (inactive). Moreover, the EC50 (in [18]; in assay [8]; in “cells”) was > 67.5 µM (inactive) each time.
Regarding `CC1CCCCC1NC(=O)COC(=O)c1ccc([N+](=O)[O-])o1` (stereo not drawn), the concentration at half-maximal activity (AC50) at Caspase-6 is 43.8 µM (active).
Consider `Cc1ccc(C(=O)C2CC2)c(C)c1`, for which, in [17], the IC50 is > 67.4 µM (inactive). The EC50 in assay [18] was > 67.4 µM (inactive).
With `CCC1(CC)Cc2ccccc2C2=C(C(=O)N3CCCCC3)C(=O)C(=O)N21`, in assay [16], the IC50 is listed as > 50 µM (not active).
Take `CN1CCN(/C=N/c2sc3c(c2C#N)CCCCC3)CC1`: the EC50 in assay [13] was > 112 µM (not active); in assay [14] it was > 112 µM (not active); in [19] it was 1.01 µM (active); in assay [20] it was > 60 µM (not active); in [21], > 67.5 µM (inactive).

The record behind these values is ChEMBL document CHEMBL1201862, “PubChem BioAssay data set” (2004).
